Measurements: US10392412B2, “Platinum anticancer agents” (THE REGENTS OF THE UNIVERSITY OF CALIFORNIA, priority 2015, dated 2019)

Assays:
EKVX cells = conditions: Non-Small Cell Lung
Description: (§1) The methods that were used by the DTP were described on the DTP website: (https://dtp.nci.nih.gov/discovery_development/nci-60/methodology.htm).

CCRF-CEM cells = conditions: Leukemia
Description: as §1

SNB-19 cells = conditions: SNB-19, Central Nervous System
Description: as §1

SN12C cells = conditions: Renal
Description: as §1

DU-145 cells = conditions: DU-145, Prostate
Description: as §1

SF-268 cells = conditions: SF-268, Central Nervous System
Description: as §1

NCI-H460 cells = conditions: NCI-H460, Non-Small Cell Lung
Description: as §1

LOX IMVI cells = conditions: Melanoma
Description: as §1

MDA-MB-231/ATCC cells = conditions: Breast
Description: as §1

SK-OV-3 cells = conditions: SK-OV-3, Ovarian
Description: as §1

OVCAR-3 cells = conditions: OVCAR-3, Ovarian
Description: as §1

A549/ATCC cells = conditions: Non-Small Cell Lung
Description: as §1

SK-MEL-5 cells = conditions: SK-MEL-5, Melanoma
Description: as §1

MDA-MB-435 cells = conditions: MDA-MB-435, Melanoma
Description: as §1

MALME-3M cells = conditions: Melanoma
Description: as §1

HCT-15 cells = conditions: HCT-15, Colon
Description: as §1

HCT-116 cells = conditions: HCT-116, Colon
Description: as §1

UACC-62 cells = conditions: UACC-62, Melanoma
Description: as §1

OVCAR-8 cells = conditions: OVCAR-8, Ovarian
Description: as §1

MDA-MB-468 cells = conditions: MDA-MB-468, Breast
Description: as §1

SF-295 cells = conditions: SF-295, Central Nervous System
Description: as §1

HOP-62 cells = conditions: HOP-62, Non-Small Cell Lung
Description: as §1

NCI-ADR-RES cells = conditions: Ovarian
Description: as §1

HS 578T cells = conditions: Breast
Description: as §1

RXF 393 cells = conditions: RXF 393, Renal
Description: as §1

T-47D cells = conditions: Breast
Description: as §1

HOP-92 cells = conditions: HOP-92, Non-Small Cell Lung
Description: as §1

SK-MEL-28 cells = conditions: SK-MEL-28, Melanoma
Description: as §1

OVCAR-5 cells = conditions: OVCAR-5, Ovarian
Description: as §1

SK-MEL-2 cells = conditions: SK-MEL-2, Melanoma
Description: as §1

U251 cells = conditions: U251, Central Nervous System
Description: as §1

CAKL-1 cells = conditions: CAKL-1, Renal
Description: as §1

COLO 205 cells = conditions: COLO 205, Colon
Description: as §1

NCI-H23 cells = conditions: NCI-H23, Non-Small Cell Lung
Description: as §1

HT29 cells = conditions: HT29, Colon
Description: as §1

M14 cells = conditions: M14, Melanoma
Description: as §1

PC-3 cells = conditions: PC-3, Prostate
Description: as §1

SW-620 cells = conditions: SW-620, Colon
Description: as §1

NCI-H522 cells = conditions: NCI-H522, Non-Small Cell Lung
Description: as §1

UO-31 cells = conditions: UO-31, Renal
Description: as §1

BT-549 cells = conditions: BT-549, Breast
Description: as §1

HCC-2998 cells = conditions: HCC-2998, Colon
Description: as §1

ACHN cells = conditions: Renal
Description: as §1

KM12 cells = conditions: KM12, Colon
Description: as §1

MOLT-4 cells = conditions: MOLT-4, Leukemia
Description: as §1

Question: What does the source list for [Pt(DMSO)methotrexate(Cl)] [SM-69]?
Answer: Log10GI50 (EKVX cells): −4.16 M; Log10GI50 (CCRF-CEM cells): −5.39 M; Log10GI50 (SNB-19 cells): −4.00 M; Log10GI50 (SN12C cells): −5.29 M; Log10GI50 (DU-145 cells): −5.18 M; Log10GI50 (SF-268 cells): −5.04 M; Log10GI50 (NCI-H460 cells): −5.34 M; Log10GI50 (LOX IMVI cells): −5.77 M; Log10GI50 (MDA-MB-231/ATCC cells): −4.00 M; Log10GI50 (SK-OV-3 cells): −4.00 M; Log10GI50 (OVCAR-3 cells): −4.15 M; Log10GI50 (A549/ATCC cells): −5.30 M; Log10GI50 (SK-MEL-5 cells): −4.12 M; Log10GI50 (MDA-MB-435 cells): −5.36 M; Log10GI50 (MALME-3M cells): −4.71 M; Log10GI50 (HCT-15 cells): −5.04 M; Log10GI50 (HCT-116 cells): −5.50 M; Log10GI50 (UACC-62 cells): −4.90 M; Log10GI50 (OVCAR-8 cells): −5.36 M; Log10GI50 (MDA-MB-468 cells): −5.08 M; Log10GI50 (SF-295 cells): −5.46 M; Log10GI50 (HOP-62 cells): −4.26 M; Log10GI50 (NCI-ADR-RES cells): −5.20 M; Log10GI50 (HS 578T cells): −4.00 M; Log10GI50 (RXF 393 cells): −4.63 M; Log10GI50 (T-47D cells): −4.08 M; Log10GI50 (HOP-92 cells): −4.00 M; Log10GI50 (SK-MEL-28 cells): −4.00 M; Log10GI50 (OVCAR-5 cells): −4.61 M; Log10GI50 (SK-MEL-2 cells): −4.00 M; Log10GI50 (U251 cells): −5.43 M; Log10GI50 (CAKL-1 cells): −5.23 M; Log10GI50 (COLO 205 cells): −4.34 M; Log10GI50 (NCI-H23 cells): −4.45 M; Log10GI50 (HT29 cells): −5.25 M; Log10GI50 (M14 cells): −5.41 M; Log10GI50 (PC-3 cells): −5.35 M; Log10GI50 (SW-620 cells): −5.48 M; Log10GI50 (NCI-H522 cells): −4.74 M; Log10GI50 (UO-31 cells): −4.92 M; Log10GI50 (BT-549 cells): −4.00 M; Log10GI50 (HCC-2998 cells): −4.95 M; Log10GI50 (ACHN cells): −5.12 M; Log10GI50 (KM12 cells): −5.17 M; Log10GI50 (MOLT-4 cells): −5.30 M
